In US7294623B2, “Benzyl morpholine derivatives” (Eli Lilly and Company, priority 2002, dated 2007) one finds melting point data, which are given here for four molecules.

Counter-ions that a name gives are not always drawn.

As for `COc1ccccc1S[C@H](c1cccc(F)c1)[C@H]1CNCCO1` (single isomer, unassigned) (as salt: hydrochloride) [Example 13], the melting point (in general, the temperature of the solid-liquid transition) lay in the range of 233 to 234 °C.

In turn, `COc1ccccc1S[C@H](c1ccc(Cl)cc1)[C@H]1CNCCO1` (single isomer, unassigned) (as salt: hydrochloride) [Example 12] showed a melting point of 238 to 241 °C. The molecule `CCOc1ccccc1S[C@H](c1cccc(F)c1)[C@H]1CNCCO1` (single isomer, unassigned) (as salt: hydrochloride) [Example 14] showed a melting point of 211 to 215 °C. To `Fc1cccc([C@@H](Sc2ccccc2Cl)[C@H]2CNCCO2)c1` (single isomer, unassigned) (as salt: hydrochloride) [Example 15] belongs 183 to 187 °C.
